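Grown in 96-well plates, cells were treated for 48 hours with each compound at five concentrations. Insufficient inhibition: endpoint recorded as highest concentration tested. GI50 marks 50% less growth.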 Activity calls are given as the source filed them. Cut-off read from the data, not from the text of the source: active = GI50 up to about 1.1 µM and inactive = higher. Positions of bridges follow the written chain, without caps; N, C: chain ends. Residues, ends and D or L forms follow the SMILES beside them.
What was measured:
Test in all cases: NCI tumour cell line growth inhibition, 48 h
TK-10 = tested on: TK-10
KM12 = tested on: KM12
U-251 = tested on: U-251
SN12C = tested on: SN12C
DU-145 = tested on: DU-145
SK-MEL-28 = tested on: SK-MEL-28
SF-539 = tested on: SF-539
SK-MEL-2 = tested on: SK-MEL-2
OVCAR-8 = tested on: OVCAR-8
NCI-H460 = tested on: NCI-H460
SW-620 = tested on: SW-620
M14 = tested on: M14
HCT-15 = tested on: HCT-15
UO-31 = tested on: UO-31
NCI/ADR-RES = tested on: NCI/ADR-RES
HL-60 = tested on: HL-60
SNB-75 = tested on: SNB-75
OVCAR-3 = tested on: OVCAR-3
OVCAR-4 = tested on: OVCAR-4
T47D = tested on: T47D

Compound | GI50 (TK-10) | GI50 (KM12) | GI50 (U-251) | GI50 (SN12C) | GI50 (DU-145) | GI50 (SK-MEL-28) | GI50 (SF-539) | GI50 (SK-MEL-2) | GI50 (OVCAR-8) | GI50 (NCI-H460) | GI50 (SW-620) | GI50 (M14) | GI50 (HCT-15) [µM] | GI50 (UO-31) | GI50 (NCI/ADR-RES) | GI50 (HL-60) | GI50 (SNB-75) | GI50 (OVCAR-3) | GI50 (OVCAR-4) | GI50 (T47D)
Nc1ncc(CN2CCOCC2)c(-c2ccccc2O)n1 | > 100 µM (inactive) | > 100 µM (inactive) | > 100 µM (inactive) | > 100 µM (inactive) | > 100 µM (inactive) | > 100 µM (inactive) | > 100 µM (inactive) | > 100 µM (inactive) | > 100 µM (inactive) | > 100 µM (inactive) | > 100 µM (inactive) | > 100 µM (inactive) | > 100 | > 100 µM (inactive) | > 100 µM (inactive) | > 100 µM (inactive) | > 100 µM (inactive) | > 100 µM (inactive) | > 100 µM (inactive) | > 100 µM (inactive)
COC(=O)[C@@H]1C[C@@]23CCCN4CC[C@@]5(c6cccc(OC)c6N(C=O)[C@]15CC2)[C@@H]43 | > 100 µM (inactive) | > 100 µM (inactive) | > 100 µM (inactive) | > 100 µM (inactive) | > 100 µM (inactive) | > 100 µM (inactive) | > 100 µM (inactive) | > 100 µM (inactive) | > 100 µM (inactive) | > 100 µM (inactive) | > 100 µM (inactive) | > 100 µM (inactive) | > 100 | > 100 µM (inactive) | > 100 µM (inactive) | > 100 µM (inactive) | 78.7 µM (inactive) | > 100 µM (inactive) | > 100 µM (inactive) | > 100 µM (inactive)
C=C1C(=O)OC2CC(C)C(C(CC(C)=O)OC(C)=O)=CCC12 (stereo not given) | 17.3 µM (inactive) | 18.6 µM (inactive) | 15.8 µM (inactive) | 4.27 µM (inactive) | 16.5 µM (inactive) | 8.24 µM (inactive) | 15.3 µM (inactive) | 18 µM (inactive) | 18.9 µM (inactive) | 17 µM (inactive) | 3.03 µM (inactive) | 11 µM (inactive) | 2.75 | 16.2 µM (inactive) | 13.8 µM (inactive) | 3.25 µM (inactive) | 23.1 µM (inactive) | 7.06 µM (inactive) | 17 µM (inactive) | 20.4 µM (inactive)
COc1ccc(NS(=O)(=O)c2ccc3ncn(NS(=O)(=O)c4ccc(I)cc4)c(=O)c3c2)cc1 | > 100 µM (inactive) | 8.89 µM (inactive) | > 100 µM (inactive) | > 100 µM (inactive) | > 100 µM (inactive) | > 100 µM (inactive) | > 100 µM (inactive) | > 100 µM (inactive) | > 100 µM (inactive) | > 100 µM (inactive) | > 100 µM (inactive) | > 100 µM (inactive) | > 100 | 43.3 µM (inactive) | > 100 µM (inactive) | 49.3 µM (inactive) | > 100 µM (inactive) | > 100 µM (inactive) | > 100 µM (inactive) | > 100 µM (inactive)
COC(=O)C1CCC(=O)NCCCCC(NC(=O)C(N)CC(=O)O)C(=O)N1 (stereo not drawn) (H-Asp-Lys-Glu-OMe; lactam 2-3; configuration not given here) | > 100 µM (inactive) | > 100 µM (inactive) | > 100 µM (inactive) | > 100 µM (inactive) | > 100 µM (inactive) | > 100 µM (inactive) | > 100 µM (inactive) | > 100 µM (inactive) | > 100 µM (inactive) | 9.68 µM (inactive) | > 100 µM (inactive) | > 100 µM (inactive) | > 100 | > 100 µM (inactive) | > 100 µM (inactive) | 29.4 µM (inactive) | 88.7 µM (inactive) | > 100 µM (inactive) | > 100 µM (inactive) | > 100 µM (inactive)
CCC(CO)Nc1nc(NCc2ccccc2)c2ncn(C(C)C)c2n1 (stereo not drawn) [(RS)-ROSCOVITINE] | 24.4 µM (inactive) | 12.7 µM (inactive) | 27.9 µM (inactive) | 32.7 µM (inactive) | 35.8 µM (inactive) | 12.8 µM (inactive) | 12.6 µM (inactive) | 20.7 µM (inactive) | 16.7 µM (inactive) | 16.2 µM (inactive) | 25.2 µM (inactive) | 16.8 µM (inactive) | 17.9 | 12.4 µM (inactive) | 15.4 µM (inactive) | 17.5 µM (inactive) | 13.8 µM (inactive) | 9.23 µM (inactive) | 20.2 µM (inactive) | 32.8 µM (inactive)
